Where a name gives a salt, the structure may show the parent alone.
Experiments:
[1] = tested on: stomach lesions in the rat; assay: Annamalai-Ma gastrointestinal irritation rat model; assay type: in vivo; details: rats, oral 180 mg-equivalents MMF/kg once per day for 4 days; score 0 (normal mucosa) to 5 (severe ulceration), Table 4
Text: At least one MMF prodrug, e.g., dimethyl fumarate, is known to cause gastrointestinal irritation. The Annamalai-Ma gastrointestinal irritation rat model is predictive of gastrointestinal irritation of MMF prodrugs in humans. This animal model has several common features of other published GI irritation animal models including the Whiteley-Dalrymple model described in Models of Inflammation: Measuring Gastrointestinal Ulceration in the Rat, Pharmacology (1998) 10.2.1-10.2.4; as well as the animal models disclosed in Joseph J. Bertone, DVM, MS, DipACVIM. Prevalence of Gastric Ulcers in Elite, Heavy Use Western Performance Horses, AAEP Proceedings/Vol. 46/2000; and İsbíl Büyükcoskun N., Central Effects of Glucagon-like Peptide-1 on Cold Restraint Stress-induced Gastric Mucosal Lesions, Physiol. Res. 48: 451-455, 1999.
In order to assess gastrointestinal irritation using this model, rats are treated orally with either vehicle or the MMF prodrug of the present disclosure (n=10 per group) at 180 mg-equivalents MMF/kg of animal body weight, dosed once per day for 4 days, followed by necropsy and gastrointestinal evaluation at 24 hrs after the final dose. Evans Blue dye is injected IV (tail vein) to visually emphasize any lesions in the gastrointestinal tissue.
Accordingly, rats are dosed once per day for 4 consecutive days with 180 mg-equivalents MMF/kg body weight per day. The animals are fasted overnight prior to necropsy. On Day 5, to help visualize lesions, 1 mL of 1% Evan's blue in saline is injected into the tail vein 30 minutes prior to euthanasia. The animals are euthanized by inhalation of carbon dioxide. A partial necropsy, limited to the abdominal cavities, is then performed. The stomach and small intestine are removed. Residual material is washed away, using an irrigation syringe filled with saline. The stomach is cut along the larger curvature and washed gently with normal saline, and is examined for any lesions. The stomachs are scored in accordance with the scoring system outlined in Table 4.

[2] = tested on: imiquimod (IMQ) mouse model of psoriasis; assay: Imiquimod (IMQ) mouse model of psoriasis; assay type: in vivo; details: oral dose of 90 mg-eq MMF/kg BID for 10 days in male Balb/C mice
Protocol: Imidquimod model of skin inflammation (Fits et al The Journal of Immunology, 2009, 182: 5836-5845). 10-12 week old BALB/c, I117c+/+ or I117c−/−, or I117re+/+ or I117re−/− mice were administered 50 mg Aldara cream (5% Imidquimod in Graceway, 3M) in the shaved back and right ear daily for 5 days. Clinical scoring and ear thickness measurements were performed daily. Scoring was based upon the manifestation of psoriatic symptoms, such as erythema, scaling and thickness: 0, No disease. 1, Very mild erythema with very mild thickening and scaling involving a small area. 2, Mild erythema with mild thickening and scaling involving a small area. 3, Moderate erythema with moderate thickening and scaling (irregular and patchy) involving a small area (<25%). 4, Severe erythema with marked thickening and scaling (irregular and patchy) involving a moderate area (25-50%). 5, Severe erythema with marked thickening and scaling (irregular and patchy) involving a large area (>50%). Ear and back tissue were harvested on day 5 for histological evaluation.
Efficacy of compounds of the disclosure and DMF is compared in the imiquimod (IMQ) mouse model of psoriasis. Balb/c mice (10 males/group) received daily topical IMQ (5% cream) on shaved back and right ear for 5 days as described above. Animals received oral dose of a representative compound of the disclosure or DMF (45 or 90 mg-eq MMF/kg twice daily) or vehicle from Day −5 to Day 5. Erythema score is the primary outcome measure.
The Erythema score values of the compounds tested at an oral dose of 90 mg-eq MMF/kg BID for 10 days in male Balb/C mice are set forth in Table 3, below.

[3] = cited from earlier work

| melting point [°C] | Compound | Stomach Irritation Score [1] | Erythema Score (% Relative to IMQ) [2] | Aqueous solubility [3] |
| --- | --- | --- | --- | --- |
| 185.2 | COC(=O)/C=C/C(=O)OCCCN1CCOCC1 (as salt: HCl) [Compound 4, Methyl(3-morpholinopropyl)fumarate HCl salt] |  |  |  |
| 145.5 | COC(=O)/C=C/C(=O)OCCCCN1CCOCC1 (as salt: HCl) [Compound 6, Methyl(4-morpholinobutyl)fumarate HCl salt] |  |  |  |
| 150 | COC(=O)/C=C/C(=O)OCCCCCN1CCOCC1 (as salt: HCl) [Compound 8, Methyl(5-morpholinopentyl)fumarate HCl salt] |  |  |  |
| 104.1 | COC(=O)/C=C/C(=O)OCCCCCCN1CCOCC1 (as salt: HCl) [Compound 10, Methyl(6-morpholinohexyl)fumarate HCl salt] |  |  |  |
|  | COC(=O)/C=C/C(=O)OCC(=O)N1CCOCC1 [CC-1, reference compound] | 2.9 |  |  |
|  | COC(=O)/C=C/C(=O)OCCN1CCOCC1 [Compound 2, Methyl(2-morpholinoethyl)fumarate HCl salt] | 0 | 69 % Relative to IMQ |  |
|  | COC(=O)/C=C/C(=O)OCCCN1CCOCC1 [Compound 4, Methyl(3-morpholinopropyl)fumarate HCl salt] | 0 | 73.3 % Relative to IMQ |  |
|  | COC(=O)/C=C/C(=O)OCCCCN1CCOCC1 [Compound 6, Methyl(4-morpholinobutyl)fumarate HCl salt] | 0.6 | 57.1 % Relative to IMQ |  |
|  | COC(=O)/C=C/C(=O)OCCCCCN1CCOCC1 [Compound 8, Methyl(5-morpholinopentyl)fumarate HCl salt] | 0 | 59.3 % Relative to IMQ |  |
|  | COC(=O)/C=C/C(=O)OCCCCCCN1CCOCC1 [Compound 10, Methyl(6-morpholinohexyl)fumarate HCl salt] | 0 | 66.7 % Relative to IMQ |  |
|  | COC(=O)/C=C/C(=O)OC [DMF, dimethyl fumarate, reference compound] | 4.6 | 74.1 % Relative to IMQ | poor |

Source: patent US8952006B2, “Morpholinoalkyl fumarate compounds, pharmaceutical compositions, and methods of use” (XenoPort, Inc., priority 2012, dated 2015)
